Data on 9 compounds can be found in patent US20260092071A1, “COMPOUNDS AND COMPOSITIONS AS SMARCA2/4 DEGRADERS AND USES THEREOF” (REGENTS OF THE UNIVERSITY OF MICHIGAN, priority 2022, published 2026).

One assay has as its target SMARCA2 (Homo sapiens, UniProt P51531). Nature of the assay: HiBit assay in engineered HT1080 CRISPR knock-in cell, 6 hrs (B series), SMARCA2. The settings on record: 6 hrs incubation; for DC50: HT1080 CRISPR knock-in cells, read-out: SMARC A2 HT1080 HiBit DC50; for Dmax: HT-1080, HT1080 CRISPR knock-in cells, read-out: SMARC A2 HT1080 HiBit Dmax (%). It counts as cell-based. The protocol:
(§1) The HiBit assay was performed using engineered HT1080 CRISPR knock-in cell utilizing the Nano-Glo HiBiT Lytic Detection System from Promega, Cat #N3040. Compounds were transferred, 25 nL DMSO or test compounds (final DMSO @ 0.1%) to intermediate plates (Corning3570) using ECHO550. Cells were seeded onto compounds at 2000 cells/25 μL/well and incubated for 6 hrs in a tissue culture incubator at 37° C. and 5% CO2. The LgBiT Protein was diluted at 1:100 and the Nano-Glo® HiBIT Lytic Substrate 1:50 into an appropriate volume of room temperature using the Nano-Glo® HiBiT Lytic Buffer. At the end of compound incubation time, 15 ul of the detection reagent was added to each well (without LgBiT for negative control wells) using the Thermo Scientific multidrop combi. The plate was shaken for 10 mins at RT using Combi. After briefly centrifugation (2000 rpm 1 mins), plate was read on Envision (Ultrasensitive luminescence model).
(In general: HiBiT is a short tag that completes a luciferase, so light tracks the accessible tagged protein.)

The next assay has as its target SMARCA4 (Homo sapiens, UniProt P51532). Nature of the assay: HiBit assay in engineered HT1080 CRISPR knock-in cell, 6 hrs (B series), SMARCA4. It counts as cell-based. The settings on record: 6 hrs incubation; for DC50: HT1080 CRISPR knock-in cells, read-out: SMARC A4 HT1080 HiBit DC50; for Dmax: HT-1080, HT1080 CRISPR knock-in cells, read-out: SMARC A4 HT1080 HiBit Dmax(%). On the procedure:
as §1

Bounds are passed on as bounds.

Chain of SMARCA4 (P51532 whole entry): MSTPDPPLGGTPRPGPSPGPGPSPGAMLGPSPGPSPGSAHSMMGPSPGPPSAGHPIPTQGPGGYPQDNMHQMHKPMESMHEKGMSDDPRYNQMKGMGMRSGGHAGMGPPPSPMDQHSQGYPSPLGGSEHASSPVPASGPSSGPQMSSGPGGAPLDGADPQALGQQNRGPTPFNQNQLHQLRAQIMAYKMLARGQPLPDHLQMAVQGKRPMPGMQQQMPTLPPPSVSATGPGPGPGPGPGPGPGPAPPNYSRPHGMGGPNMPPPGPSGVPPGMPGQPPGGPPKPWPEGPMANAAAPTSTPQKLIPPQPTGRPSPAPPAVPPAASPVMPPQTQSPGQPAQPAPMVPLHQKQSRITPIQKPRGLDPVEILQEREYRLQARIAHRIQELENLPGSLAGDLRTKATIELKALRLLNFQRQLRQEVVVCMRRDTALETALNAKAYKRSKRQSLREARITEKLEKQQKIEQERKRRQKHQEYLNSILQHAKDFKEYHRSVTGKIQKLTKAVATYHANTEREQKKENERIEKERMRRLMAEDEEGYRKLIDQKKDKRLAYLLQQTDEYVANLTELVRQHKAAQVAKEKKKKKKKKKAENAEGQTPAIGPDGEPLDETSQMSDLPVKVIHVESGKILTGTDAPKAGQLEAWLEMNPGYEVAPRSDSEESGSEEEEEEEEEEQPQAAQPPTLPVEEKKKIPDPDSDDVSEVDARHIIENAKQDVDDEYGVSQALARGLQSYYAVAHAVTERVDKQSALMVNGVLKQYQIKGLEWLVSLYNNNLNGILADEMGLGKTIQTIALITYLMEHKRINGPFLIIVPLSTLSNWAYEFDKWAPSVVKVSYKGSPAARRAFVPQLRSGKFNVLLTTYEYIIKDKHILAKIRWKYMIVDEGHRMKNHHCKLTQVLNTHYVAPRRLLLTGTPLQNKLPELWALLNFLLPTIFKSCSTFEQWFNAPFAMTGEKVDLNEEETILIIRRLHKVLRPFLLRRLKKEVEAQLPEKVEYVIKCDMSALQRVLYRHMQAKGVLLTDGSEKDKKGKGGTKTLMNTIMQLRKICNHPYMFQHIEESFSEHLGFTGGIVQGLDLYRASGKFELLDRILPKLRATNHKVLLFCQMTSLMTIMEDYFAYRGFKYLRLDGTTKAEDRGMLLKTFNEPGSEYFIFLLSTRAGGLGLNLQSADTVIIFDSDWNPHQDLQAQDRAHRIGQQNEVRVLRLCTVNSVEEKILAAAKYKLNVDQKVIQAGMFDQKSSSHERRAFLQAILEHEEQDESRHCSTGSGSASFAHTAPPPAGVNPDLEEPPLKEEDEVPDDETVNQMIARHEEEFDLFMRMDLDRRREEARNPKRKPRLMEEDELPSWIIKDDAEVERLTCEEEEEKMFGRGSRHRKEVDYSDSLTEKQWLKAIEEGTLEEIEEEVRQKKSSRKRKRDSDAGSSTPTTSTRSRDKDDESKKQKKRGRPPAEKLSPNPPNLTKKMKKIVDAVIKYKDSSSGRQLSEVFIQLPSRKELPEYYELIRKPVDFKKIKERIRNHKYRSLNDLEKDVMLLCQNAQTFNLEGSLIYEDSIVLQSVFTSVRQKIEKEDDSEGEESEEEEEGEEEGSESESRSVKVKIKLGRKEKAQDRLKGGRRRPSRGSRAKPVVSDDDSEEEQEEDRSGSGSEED
Chain of SMARCA2 (P51531 whole entry): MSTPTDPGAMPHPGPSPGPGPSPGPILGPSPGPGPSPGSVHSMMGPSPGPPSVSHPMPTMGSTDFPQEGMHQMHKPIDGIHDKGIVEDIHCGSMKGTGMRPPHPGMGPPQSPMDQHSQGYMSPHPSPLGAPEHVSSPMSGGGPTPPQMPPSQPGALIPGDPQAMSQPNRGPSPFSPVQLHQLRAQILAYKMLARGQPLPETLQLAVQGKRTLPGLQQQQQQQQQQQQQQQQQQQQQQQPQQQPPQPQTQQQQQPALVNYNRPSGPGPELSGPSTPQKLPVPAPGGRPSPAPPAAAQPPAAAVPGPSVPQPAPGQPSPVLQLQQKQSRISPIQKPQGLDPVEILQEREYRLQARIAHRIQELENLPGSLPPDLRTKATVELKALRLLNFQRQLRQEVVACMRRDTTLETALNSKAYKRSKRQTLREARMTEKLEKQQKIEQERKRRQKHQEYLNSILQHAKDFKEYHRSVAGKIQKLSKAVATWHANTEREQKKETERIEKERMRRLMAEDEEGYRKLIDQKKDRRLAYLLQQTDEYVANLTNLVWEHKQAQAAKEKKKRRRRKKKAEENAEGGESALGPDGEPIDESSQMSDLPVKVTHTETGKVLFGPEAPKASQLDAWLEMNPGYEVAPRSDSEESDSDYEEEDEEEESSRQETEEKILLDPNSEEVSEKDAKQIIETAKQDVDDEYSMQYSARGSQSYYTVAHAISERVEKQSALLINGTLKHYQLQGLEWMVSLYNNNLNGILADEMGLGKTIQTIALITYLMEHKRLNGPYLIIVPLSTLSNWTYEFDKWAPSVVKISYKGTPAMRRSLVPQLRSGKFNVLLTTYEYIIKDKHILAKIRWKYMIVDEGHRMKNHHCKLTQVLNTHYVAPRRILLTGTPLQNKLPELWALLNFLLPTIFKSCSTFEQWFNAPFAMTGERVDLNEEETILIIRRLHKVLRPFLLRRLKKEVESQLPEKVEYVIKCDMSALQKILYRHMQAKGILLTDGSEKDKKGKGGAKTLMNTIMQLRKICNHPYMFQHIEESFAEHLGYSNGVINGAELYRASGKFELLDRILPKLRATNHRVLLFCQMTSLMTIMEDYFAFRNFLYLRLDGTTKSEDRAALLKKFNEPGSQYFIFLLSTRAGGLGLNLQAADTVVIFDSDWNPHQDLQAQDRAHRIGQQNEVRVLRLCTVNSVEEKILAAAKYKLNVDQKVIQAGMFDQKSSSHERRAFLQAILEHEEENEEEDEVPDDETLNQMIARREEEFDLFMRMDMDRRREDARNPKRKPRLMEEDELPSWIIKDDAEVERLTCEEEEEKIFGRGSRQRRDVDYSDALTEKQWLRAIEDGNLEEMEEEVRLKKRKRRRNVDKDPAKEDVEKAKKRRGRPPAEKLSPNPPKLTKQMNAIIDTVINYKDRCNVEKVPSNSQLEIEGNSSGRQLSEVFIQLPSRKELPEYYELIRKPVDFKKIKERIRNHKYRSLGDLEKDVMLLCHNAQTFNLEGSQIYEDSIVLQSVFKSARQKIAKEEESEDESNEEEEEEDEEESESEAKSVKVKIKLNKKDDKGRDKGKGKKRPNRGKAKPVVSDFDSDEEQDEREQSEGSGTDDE

Consider `Cc1ncsc1-c1ccc([C@H](C)NC(=O)C2C[C@@H](O)CN2C(=O)[C@@H](c2cc(OCCCCN3CCC(c4cccc5c4C(C)(C)c4nc(=O)c6c(Cl)cccc6n4-5)CC3)no2)C(C)C)cc1` (stereo in doubt) [Compound B98, (2S,4R)-1-(2-(3-(4-(4-(4-chloro-7,7-dimethyl-5-oxo-5,7-dihydroindolo[1,2-a]quinazolin-8-yl)piperidin-1-yl)butoxy)isoxazol-5-yl)-3-methylbutanoyl)-4-hydroxy-N-((S)-1-(4-(4-methylthiazol-5-yl)phenyl)ethyl)pyrrolidine-2-carboxamide], for which the DC50 on SMARCA2 was under 100 nM; at SMARCA4, 100 to 500 nM. Moreover, the Dmax on SMARCA2 is 70 to 90%; on SMARCA4, under 50%.

Regarding `Cc1ncsc1-c1ccc(C(CN2CCOCC2)NC(=O)[C@@H]2C[C@@H](O)CN2C(=O)[C@H](c2cc(N3CCC(CN4CCN(c5ccc6c(c5)-n5c(nc(=O)c7c(Cl)cccc75)C65CCCCC5)CC4)CC3)no2)C(C)C)cc1` (stereo in doubt) [Compound B160, (2S,4R)-1-((S)-2-(3-(4-((4-(4′-chloro-5′-oxo-5′H-spiro[cyclohexane-1,7′-indolo[1,2-a]quinazolin]-10′-yl)piperazin-1-yl)methyl)piperidin-1-yl)isoxazol-5-yl)-3-methylbutanoyl)-4-hydroxy-N-((S)-1-(4-(4-methylthiazol-5-yl)phenyl)-2-morpholinoethyl)pyrrolidine-2-carboxamide], on SMARCA2, the DC50 is under 100 nM and the Dmax was over 90%. Also, at SMARCA4, the DC50 is under 100 nM and the Dmax was in the range of 50 to 69%.

With `Cc1ncsc1-c1ccc([C@H](C)NC(=O)[C@@H]2C[C@@H](O)CN2C(=O)[C@@H](NC(=O)[C@H]2CC[C@H](CN3CCC(c4ccc5c(c4)C(C)(C)c4nc(=O)c6c(Cl)cccc6n4-5)CC3)CC2)C(C)(C)C)cc1` [Compound B1, (2S,4R)-1-((S)-2-((1r,4S)-4-((4-(4-chloro-7,7-dimethyl-5-oxo-5,7-dihydroindolo[1,2-a]quinazolin-9-yl)piperidin-1-yl)methyl)cyclohexane-1-carboxamido)-3,3-dimethylbutanoyl)-4-hydroxy-N—((S)-1-(4-(4-methylthiazol-5-yl)phenyl)ethyl)pyrrolidine-2-carboxamide], on SMARCA2, the DC50 was under 100 nM and the Dmax is over 90%. For the same compound, at SMARCA4, the DC50 is under 100 nM and the Dmax was 50 to 69%.

Take `Cc1ncsc1-c1ccc([C@H](CCCCCN2CCC(c3ccc4c(c3)C(C)(C)c3nc(=O)c5c(Br)cccc5n3-4)CC2)NC(=O)[C@@H]2C[C@@H](O)CN2C(=O)[C@@H](NC(=O)C2(F)CC2)C(C)(C)C)cc1` [Compound B2, (2S,4R)—N—((S)-6-(4-(4-bromo-7,7-dimethyl-5-oxo-5,7-dihydroindolo[1,2-a]quinazolin-9-yl)piperidin-1-yl)-1-(4-(4-methylthiazol-5-yl)phenyl)hexyl)-1-((S)-2-(1-fluorocyclopropane-1-carboxamido)-3,3-dimethylbutanoyl)-4-hydroxypyrrolidine-2-carboxamide]: at SMARCA2, the DC50 is under 100 nM and the Dmax is over 90%. Also, on SMARCA4, the DC50 is under 100 nM and the Dmax was over 90%.

For the compound `Cc1ncsc1-c1ccc([C@H](CCCCCN2CCC(c3ccc4c(c3)C(C)(C)c3nc(=O)c5c(Br)cccc5n3-4)CC2)NC(=O)[C@@H]2C[C@@H](O)CN2C(=O)[C@@H](NC(=O)C2(C#N)CC2)C(C)(C)C)cc1` [Compound B3, (2S,4R)—N—((S)-6-(4-(4-bromo-7,7-dimethyl-5-oxo-5,7-dihydroindolo[1,2-a]quinazolin-9-yl)piperidin-1-yl)-1-(4-(4-methylthiazol-5-yl)phenyl)hexyl)-1-((S)-2-(1-cyanocyclopropane-1-carboxamido)-3,3-dimethylbutanoyl)-4-hydroxypyrrolidine-2-carboxamide], at SMARCA2, the DC50 was under 100 nM and the Dmax was over 90%. In addition, on SMARCA4, the DC50 is under 100 nM and the Dmax was over 90%.

With `Cc1ncsc1-c1ccc([C@H](C)NC(=O)[C@@H]2C[C@@H](O)CN2C(=O)[C@@H](c2cc(OCCN3CCC(c4ccc5c(c4)C(C)(C)c4nc(=O)c6c(Cl)cccc6n4-5)CC3)no2)C(C)C)cc1` [Compound B4, (2S,4R)-1-((R)-2-(3-(2-(4-(4-chloro-7,7-dimethyl-5-oxo-5,7-dihydroindolo[1,2-a]quinazolin-9-yl)piperidin-1-yl)ethoxy)isoxazol-5-yl)-3-methylbutanoyl)-4-hydroxy-N—((S)-1-(4-(4-methylthiazol-5-yl)phenyl)ethyl)pyrrolidine-2-carboxamide], at SMARCA2, the DC50 was under 100 nM and the Dmax was over 90%. Besides, on SMARCA4, the DC50 is under 100 nM and the Dmax was in the range of 70 to 90%.

`Cc1ncsc1-c1ccc([C@H](C)NC(=O)[C@@H]2C[C@@H](O)CN2C(=O)[C@@H](NC(=O)CN2CCC(c3ccc4c(c3)C(C)(C)c3nc(=O)c5c(Br)cccc5n3-4)CC2)C(C)(C)C)cc1` [Compound B5, (2S,4R)-1-((S)-2-(2-(4-(4-bromo-7,7-dimethyl-5-oxo-5,7-dihydroindolo[1,2-a]quinazolin-9-yl)piperidin-1-yl)acetamido)-3,3-dimethylbutanoyl)-4-hydroxy-N—((S)-1-(4-(4-methylthiazol-5-yl)phenyl)ethyl)pyrrolidine-2-carboxamide]: at SMARCA2, the DC50 was under 100 nM and the Dmax was over 90%. At SMARCA4, the DC50 is under 100 nM and the Dmax was over 90%.

`Cc1ncsc1-c1ccc([C@H](C)NC(=O)[C@@H]2C[C@@H](O)CN2C(=O)[C@@H](NC(=O)CN2CCC(c3ccc4c(c3)C(C)(C)c3nc(=O)c5c(Cl)cccc5n3-4)CC2)C(C)(C)C)cc1` [Compound B6, (2S,4R)-1-((S)-2-(2-(4-(4-chloro-7,7-dimethyl-5-oxo-5,7-dihydroindolo[1,2-a]quinazolin-9-yl)piperidin-1-yl)acetamido)-3,3-dimethylbutanoyl)-4-hydroxy-N—((S)-1-(4-(4-methylthiazol-5-yl)phenyl)ethyl)pyrrolidine-2-carboxamide]: at SMARCA2, the DC50 is under 100 nM and the Dmax is over 90%. Further, on SMARCA4, the DC50 is under 100 nM and the Dmax was over 90%.

For `Cc1ncsc1-c1ccc([C@H](CN2CCOCC2)NC(=O)[C@@H]2C[C@@H](O)CN2C(=O)[C@@H](n2cc([C@H]3CC[C@H](CN4CCC(c5ccc6c(c5)-n5c(nc(=O)c7c(Br)cccc75)C65CCCCC5)CC4)CC3)nn2)C(C)(C)C)cc1` [Compound B112, (2S,4R)-1-((S)-2-(4-((1r,4S)-4-((4-(4′-bromo-5′-oxo-5′H-spiro[cyclohexane-1,7′-indolo[1,2-a]quinazolin]-10′-yl)piperidin-1-yl)methyl)cyclohexyl)-1H-1,2,3-triazol-1-yl)-3,3-dimethylbutanoyl)-4-hydroxy-N-((R)-1-(4-(4-methylthiazol-5-yl)phenyl)-2-morpholinoethyl)pyrrolidine-2-carboxamide], on SMARCA2, the DC50 was under 100 nM and the Dmax is over 90%.
